# According to ChEMBL document CHEMBL1201862, “PubChem BioAssay data set” (2004):
# Calls of active or inactive are those of the source. Rule as the data show it, for most assays here: actives have a measured EC50 and inactives only a lower limit.
# Columns and labels:
# [1] = target: T1, RNA-binding protein pos-1 (Caenorhabditis elegans, UniProt G5EF15); assay: inhibitors of POS-1/mex-3 RNA binding, dose response, biochemical, fluorescence polarization (AID 1964);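 also: purified POS-1 fused to maltose binding protein made in E. coli; potency of compounds blocking POS-1 binding to fluorescent RNA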
# T1 sequence (G5EF15 whole entry): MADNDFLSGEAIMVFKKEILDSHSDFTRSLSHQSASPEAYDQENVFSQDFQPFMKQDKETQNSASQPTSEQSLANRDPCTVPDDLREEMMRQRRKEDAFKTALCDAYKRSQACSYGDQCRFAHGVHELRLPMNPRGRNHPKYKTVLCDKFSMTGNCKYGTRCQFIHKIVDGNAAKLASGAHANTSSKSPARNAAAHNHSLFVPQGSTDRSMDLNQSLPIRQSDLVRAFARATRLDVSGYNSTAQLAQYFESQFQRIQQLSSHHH
# [2] = target: T2, Zinc finger protein mex-5 (Caenorhabditis elegans, UniProt Q9XUB2); assay: MEX-5/TCR-2 RNA interaction inhibitors, dose response, biochemical, C. elegans, fluorescence polarization (AID 1960)
# T2 sequence (Q9XUB2 whole entry): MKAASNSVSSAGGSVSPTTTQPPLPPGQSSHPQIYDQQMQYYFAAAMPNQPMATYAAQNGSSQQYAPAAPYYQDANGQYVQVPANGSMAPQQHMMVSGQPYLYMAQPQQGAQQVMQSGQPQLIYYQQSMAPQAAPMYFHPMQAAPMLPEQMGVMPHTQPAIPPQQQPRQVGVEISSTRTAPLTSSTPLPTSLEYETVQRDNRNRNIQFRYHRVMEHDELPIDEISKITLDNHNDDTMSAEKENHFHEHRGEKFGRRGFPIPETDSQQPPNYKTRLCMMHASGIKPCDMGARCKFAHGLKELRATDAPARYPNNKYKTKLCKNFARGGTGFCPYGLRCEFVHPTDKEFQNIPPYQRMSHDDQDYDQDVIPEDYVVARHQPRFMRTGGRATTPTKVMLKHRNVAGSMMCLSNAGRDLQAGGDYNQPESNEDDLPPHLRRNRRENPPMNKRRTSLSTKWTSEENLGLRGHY
# INS1 = assay: beta cell apoptosis inhibitors, cytokine rescue, dose response, luminescence, retest (AID 449756); format: functional, cell-based; details: Rattus norvegicus;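 also: cell death triggered by IL-1 beta plus TNF-alpha plus IFN-gamma mixture; protective hits raise ATP signal compared with cytokine alone wells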
# [3] = Luminescence Cell-Based Dose Retest to Confirm Inhibitors of Cancer Stem Cells. [Related pubchem assays (depositor defined):AID2717, AID2721]; format: functional; details: Homo sapiens
# [4] = target: T3, Polyadenylate-binding protein 1 (Homo sapiens, UniProt P11940); assay: PABP1 MLLE–PAM2 binding inhibitor potency, dose response, biochemical, fluorescence polarization, FITC-PAM2 peptide (AID 602259); format: functional; details: read-out: IC50_Mean
# T3 sequence (P11940 whole entry): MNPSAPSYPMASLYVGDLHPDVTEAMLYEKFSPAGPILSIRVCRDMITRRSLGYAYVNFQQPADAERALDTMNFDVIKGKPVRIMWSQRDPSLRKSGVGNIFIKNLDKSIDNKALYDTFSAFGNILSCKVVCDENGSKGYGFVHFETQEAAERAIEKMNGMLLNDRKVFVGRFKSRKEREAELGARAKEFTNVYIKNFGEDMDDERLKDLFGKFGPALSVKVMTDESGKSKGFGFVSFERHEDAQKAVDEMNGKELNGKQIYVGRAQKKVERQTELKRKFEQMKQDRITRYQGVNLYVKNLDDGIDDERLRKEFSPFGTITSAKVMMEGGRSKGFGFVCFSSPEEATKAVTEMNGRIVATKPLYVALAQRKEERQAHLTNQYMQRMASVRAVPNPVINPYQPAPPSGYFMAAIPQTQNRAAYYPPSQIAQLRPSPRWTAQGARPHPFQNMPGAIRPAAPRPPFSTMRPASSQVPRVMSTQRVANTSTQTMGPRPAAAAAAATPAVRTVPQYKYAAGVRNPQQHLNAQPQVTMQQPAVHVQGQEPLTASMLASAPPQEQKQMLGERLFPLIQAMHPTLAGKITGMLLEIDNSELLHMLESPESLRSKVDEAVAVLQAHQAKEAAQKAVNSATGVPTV
# [5] = target: T3, Polyadenylate-binding protein 1; assay: PABP1 MLLE–PAM2 interaction inhibitors, dose response, miRNA deadenylation inhibitor project, biochemical, fluorescence polarization, Cy5-PAM2 peptide, secondary (AID 602260); format: functional; details: read-out: IC50_Mean
# [6] = target: Luciferin 4-monooxygenase (Photinus pyralis, UniProt P08659); assay: firefly luciferase enzyme inhibitors, dose response, biochemical, luminescence (AID 1891)
# Sequence of Luciferin 4-monooxygenase (P08659 whole entry): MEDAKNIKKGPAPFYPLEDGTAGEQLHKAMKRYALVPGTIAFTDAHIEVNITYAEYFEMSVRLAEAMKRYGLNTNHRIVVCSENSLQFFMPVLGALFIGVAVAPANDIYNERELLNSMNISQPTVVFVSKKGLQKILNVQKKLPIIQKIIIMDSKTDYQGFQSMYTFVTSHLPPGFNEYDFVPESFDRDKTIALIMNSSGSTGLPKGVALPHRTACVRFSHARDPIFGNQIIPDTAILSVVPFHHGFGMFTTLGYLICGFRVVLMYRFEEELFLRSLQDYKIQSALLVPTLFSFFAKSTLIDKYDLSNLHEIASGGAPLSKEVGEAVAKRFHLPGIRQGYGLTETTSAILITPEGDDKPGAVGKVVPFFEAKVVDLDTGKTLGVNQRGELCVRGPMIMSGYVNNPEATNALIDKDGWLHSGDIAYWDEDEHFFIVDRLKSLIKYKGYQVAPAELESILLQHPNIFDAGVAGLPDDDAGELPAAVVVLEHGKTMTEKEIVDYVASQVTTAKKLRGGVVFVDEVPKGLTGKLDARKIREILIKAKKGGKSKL
# [7] = Luminescence Cell-Based Dose Confirmation HTS to Identify Inhibitors of Platelet Dense Granule Release. [Related pubchem assays: 1663 (Primary HTS), 1678 (Summary of Project)]; format: functional
# [8] = P. falciparum Dd2 growth inhibitors, dose response, SYBR Green, cherry-picked samples (AID 1159567); format: functional, cell-based
# [9] = Luminescence Cell-Based Dose Response HTS to Identify Inhibitors of 5'UTR Stem-Loop Driven Prion Protein mRNA Translation in H4 Neuroglioblastoma Cells. [Related pubchem assays: 1827 (Project Summary), 1813 (Primary HTS)]; format: functional
# [10] = inhibitors of SNCA 5'UTR-driven reporter translation, confirmation, H4 neuroglioma cells, luminescence (AID 1988); format: functional, cell-based
# [11] = inhibitors of intracellular T. cruzi replication, confirmation, NIH3T3 host cells, beta-gal luminescence (AID 2044); format: functional, cell-based;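 also: intracellular parasites grown in NIH/3T3 mouse fibroblasts as host cells; luminescent beta-galactosidase reporter signal from transgenic T. cruzi replicating inside host cells; inhibitors lower the luminescence signal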
# [12] = inhibitors of firefly luciferase expression or activity, dose response, H4 neuroglioma cells, luminescence (AID 1990); format: functional, cell-based
# [13] = cytotoxicity toward NIH3T3 fibroblasts, dose response, counter-screen, cell-based, ATP luminescence, mouse fibroblasts (AID 2010); format: functional;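 also: cells exposed to compound for about 90 hours before reading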
# [14] = HEp-2 cell cytotoxicity, dose response, cytotoxicity control for RSV inhibitor project, HTS (AID 2410); format: functional; details: human respiratory syncytial virus
# [15] = Luminescence Cell-Based Dose Response HTS to Identify Activators of Luciferase Translation or Activity in H4 […] Cells. [Related pubchem assays: 1829 (Project Summary), 1814 (Primary HTS)]; format: functional
# H4 = assay: Luminescence Cell-Based Dose Response HTS to Identify Activators of 5'UTR Stem-Loop Driven Prion Protein mRNA Translation in H4 Neuroglioblastoma Cells. [Related pubchem assays: 1829 (Project Summary), 1814 (Primary HTS)]; format: functional; details: Homo sapiens
# Nonstructural protein 1 = Nonstructural protein 1 (Influenza A virus, UniProt Q194T2); format: functional, Influenza A virus (A/California/07/2009(H1N1))
# Sequence of Nonstructural protein 1 (Q194T2 whole entry): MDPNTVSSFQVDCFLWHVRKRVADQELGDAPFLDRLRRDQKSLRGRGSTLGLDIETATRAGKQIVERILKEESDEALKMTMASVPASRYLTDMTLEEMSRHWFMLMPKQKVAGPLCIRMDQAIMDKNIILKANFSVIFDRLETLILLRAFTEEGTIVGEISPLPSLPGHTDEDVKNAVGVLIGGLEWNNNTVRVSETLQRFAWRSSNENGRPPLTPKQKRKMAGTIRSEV
# [16] = target: T4, Replicative DNA helicase DnaB (Mycobacterium tuberculosis, UniProt P9WMR3); assay: DnaB intein splicing inhibitors, dose response, biochemical, cell-free fluorescence (AID 449749); format: functional
# T4 sequence (P9WMR3 whole entry): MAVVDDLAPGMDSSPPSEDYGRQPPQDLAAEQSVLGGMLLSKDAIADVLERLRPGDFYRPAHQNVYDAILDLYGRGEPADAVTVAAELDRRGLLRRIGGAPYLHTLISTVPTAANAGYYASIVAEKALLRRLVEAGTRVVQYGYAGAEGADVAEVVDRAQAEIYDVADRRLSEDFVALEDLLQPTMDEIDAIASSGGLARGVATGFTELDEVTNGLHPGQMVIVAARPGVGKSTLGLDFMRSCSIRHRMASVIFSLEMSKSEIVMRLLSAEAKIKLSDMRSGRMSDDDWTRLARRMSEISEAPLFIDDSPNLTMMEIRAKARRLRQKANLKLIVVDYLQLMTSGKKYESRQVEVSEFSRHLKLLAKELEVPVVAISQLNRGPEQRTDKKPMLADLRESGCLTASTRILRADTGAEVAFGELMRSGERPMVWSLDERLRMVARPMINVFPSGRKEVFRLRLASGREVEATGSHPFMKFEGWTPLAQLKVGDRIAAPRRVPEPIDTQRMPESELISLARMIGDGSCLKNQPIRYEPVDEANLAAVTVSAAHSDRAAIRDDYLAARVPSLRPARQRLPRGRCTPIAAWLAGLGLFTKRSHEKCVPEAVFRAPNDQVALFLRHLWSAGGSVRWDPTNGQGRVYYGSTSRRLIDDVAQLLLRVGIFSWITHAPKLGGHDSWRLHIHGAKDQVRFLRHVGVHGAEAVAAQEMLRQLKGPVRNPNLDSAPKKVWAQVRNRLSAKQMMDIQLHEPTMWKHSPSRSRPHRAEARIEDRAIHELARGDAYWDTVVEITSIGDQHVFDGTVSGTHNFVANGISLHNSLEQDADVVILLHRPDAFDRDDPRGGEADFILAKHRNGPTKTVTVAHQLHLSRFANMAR
# Protein RecA = target: T5, Protein RecA (Mycobacterium tuberculosis, UniProt P9WHJ3); assay: Fluorescence Cell-Free Homogeneous Dose Retest to Identify Inhibitors of RecA-Intein Splicing Activity. [Related pubchem assays (depositor defined):AID2097, AID2223, AID489010, AID492950]; format: functional
# T5 sequence (P9WHJ3 whole entry): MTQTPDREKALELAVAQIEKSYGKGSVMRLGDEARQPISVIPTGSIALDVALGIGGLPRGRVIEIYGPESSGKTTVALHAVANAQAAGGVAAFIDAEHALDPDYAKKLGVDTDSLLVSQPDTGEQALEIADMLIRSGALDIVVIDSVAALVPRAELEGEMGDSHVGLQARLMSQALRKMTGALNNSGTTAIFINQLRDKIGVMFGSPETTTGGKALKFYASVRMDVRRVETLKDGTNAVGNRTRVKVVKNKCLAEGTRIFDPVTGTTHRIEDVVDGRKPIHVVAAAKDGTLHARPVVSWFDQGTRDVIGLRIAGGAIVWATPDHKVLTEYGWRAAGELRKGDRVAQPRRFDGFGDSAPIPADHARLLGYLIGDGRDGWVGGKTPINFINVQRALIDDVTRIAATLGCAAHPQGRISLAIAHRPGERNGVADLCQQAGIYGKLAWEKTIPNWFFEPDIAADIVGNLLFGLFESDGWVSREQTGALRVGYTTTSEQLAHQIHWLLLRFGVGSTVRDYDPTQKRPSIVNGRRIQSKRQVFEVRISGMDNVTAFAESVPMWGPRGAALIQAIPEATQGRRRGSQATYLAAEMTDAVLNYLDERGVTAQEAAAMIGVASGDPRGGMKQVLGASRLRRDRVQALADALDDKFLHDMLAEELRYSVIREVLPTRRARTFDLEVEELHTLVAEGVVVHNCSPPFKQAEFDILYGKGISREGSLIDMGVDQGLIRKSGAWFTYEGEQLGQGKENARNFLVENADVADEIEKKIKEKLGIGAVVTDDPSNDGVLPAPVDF
compound,measurement,setting,value
CC1=CC(C)(C)N2C(=O)C3(C(C#N)=C(N)OC4=C3C(=O)CC(C)(C)C4)c3c(C)c(C)cc1c32 (stereo not drawn),EC50,[1],> 300 µM (not active)
same,EC50,[2],> 300 µM (not active)
C=C1[C@@H](O)[C@@H]2O[C@]3(CC[C@H](/C=C/[C@@H](C)[C@@H]4CC(C)=CC5(O[C@H](C[C@@](C)(O)C(=O)OC)CC[C@H]5O)O4)O3)CC[C@H]2O[C@@H]1[C@@H](O)C[C@H](C)[C@H]1OC2(CCCCO2)CC[C@H]1C (stereo partly drawn),AC50,INS1,< 0.195 µM (active)
same,AC50,[3],< 0.16 µM (inconclusive)
COc1ccc(-n2c(Cc3cccn3C)nnc2SCC(=O)Nc2cccc(Cl)c2)cc1,AC50,[3],125 µM (active)
O=C(CSc1n[nH]c2c3ccccc3nc-2n1)NCc1ccco1,IC50,[4],> 66 µM (inactive)
same,IC50,[5],> 66 µM (inactive)
CCn1c2ccccc2c2cc(NC(=O)c3cccc([N+](=O)[O-])c3)ccc21,AC50,[3],1.62 µM (active)
COc1ccc(NC(=O)c2ccc(OC(F)F)cc2)cc1Cl,EC50,[6],3.3 µM (active)
same,EC50,[7],4.52 µM (active)
COc1cccc(-c2ccc3c(c2)[C@H]2[C@H](CCN2C(=O)C2CCCC2)[C@H](CO)N3)c1,AC50,[8],7.06 µM (active)
CCN(CC)C(=O)c1sc2nc(-c3cccs3)cc(-c3cccs3)c2c1N,EC50,[1],> 300 µM (not active)
same,EC50,[2],> 300 µM (not active)
COc1ccc(-c2[nH]ncc2N=Nc2ccccc2)cc1,AC50,[3],3.81 µM (active)
Cc1cc(C(=O)N/N=C/c2cc(Br)cc(Br)c2OC(=O)c2cccc(F)c2)[nH]n1,AC50,INS1,2.33 µM (active)
same,AC50,[3],3.46 µM (active)
same,EC50,[9],8.33 µM (active)
same,EC50,[10],7.49 µM (active)
same,EC50,[11],1.01 µM (active)
same,EC50,[12],8.5 µM (active)
same,EC50,[13],> 60 µM (inconclusive)
O=C1CCn2c1c(O)c1ccccc1c2=O,IC50,[4],43.6 µM (inactive)
same,IC50,[5],> 66 µM (inactive)
Cc1ccnc(Nc2nc(-c3ccc(O)cc3O)cs2)c1,AC50,[3],12.3 µM (active)
same,CC50,[14],25.8 µM (active)
CCCCOc1c(Br)cc(/C=N/O)cc1OCC,EC50,[1],> 300 µM (not active)
same,EC50,[2],> 300 µM (not active)
CCC(=O)Nc1ccc2c(c1)OC[C@H](C)N(Cc1ccccn1)C[C@H](C)[C@H](OC)CN(C)C2=O,AC50,[8],15.3 µM (active)
Cc1nn(CC(C)C)c(Cl)c1C(=O)NC1CCC(C)CC1 (stereo not drawn),EC50,[15],0.258 µM (active)
same,EC50,H4,1.19 µM (active)
CS(=O)(=O)N1[C@H](C#N)[C@H](c2ccccc2-c2ccccc2)[C@H]1CO,AC50,[8],> 36 µM (inactive)
Nc1ccc2c(c1)C/C(=C/c1ccco1)C2=O,EC50,[1],23 µM (active)
same,EC50,[2],14.3 µM (active)
C=CCN1C(=O)/C(=C/C=C2/N(CC)c3ccc(S(=O)(=O)N(C)C)cc3N2CC)SC1=S,IC50,Nonstructural protein 1,> 100 µM (active)
Cc1occc1C(=O)Nc1cc(C(C)(C)C)on1,EC50,[6],2.78 µM (active)
same,EC50,[7],3.46 µM (active)
COC(=O)c1ccccc1-n1c(CCC(=O)O)ccc1-c1ccc(F)cc1,EC50,[1],> 300 µM (not active)
same,EC50,[2],> 300 µM (not active)
O=C(N/N=C/c1sc(=O)n(-c2ccccc2)c1Cl)c1ccccc1,EC50,H4,34.9 µM (inconclusive)
COc1ccccc1/C=N/Nc1nccnc1Cl,EC50,[6],12.3 µM (active)
same,EC50,[7],5.37 µM (active)
CCOC(=O)C1=C(C)NC(=O)NC1,EC50,[6],> 112 µM (not active)
same,EC50,[7],5.87 µM (active)
Fc1ccc(NC(S)=Nc2ccc(Br)cc2)cc1,IC50,[4],> 66 µM (inactive)
same,IC50,[5],> 66 µM (inactive)
CCOC(=O)c1[nH]nc(-c2c(O)cc(C)cc2O)c1-c1csc(C)n1,EC50,[6],> 112 µM (not active)
same,EC50,[7],> 112 µM (not active)
Cc1ccccc1-c1ccc([C@H]2[C@H]3CNC[C@@H]2N3S(=O)(=O)c2cccc(F)c2)cc1,AC50,[8],35.7 µM (active)
Cc1ccc2oc(-c3ccc(NC(=O)c4cccnc4)cc3)nc2c1,EC50,[6],> 112 µM (not active)
same,AC50,INS1,7.77 µM (active)
same,EC50,[7],> 112 µM (not active)
Cc1ccc(-c2nc(/C=N/c3ccc(O)cc3)c(O)o2)cc1,EC50,[1],> 300 µM (not active)
same,EC50,[2],> 300 µM (not active)
COc1ccc(NS(=O)(=O)c2ccc(F)c(Cl)c2)cn1,IC50,[4],24.2 µM (inactive)
same,IC50,[5],46.2 µM (inactive)
COc1ccc(C2=NN(c3ccccc3)C(=O)/C2=C\c2ccc(O)c(OC)c2)cc1,AC50,[16],2.29 µM (active)
same,IC50,Nonstructural protein 1,42.4 µM (active)
same,EC50,Protein RecA,1.42 µM (active)
